{"source": "paper PMC3906526", "about": "(Archives of Pharmacal Research, 2013)"}
{"biological_target": "c-Kit (Homo sapiens, UniProt P10721)", "sequence (P10721 544-976)": "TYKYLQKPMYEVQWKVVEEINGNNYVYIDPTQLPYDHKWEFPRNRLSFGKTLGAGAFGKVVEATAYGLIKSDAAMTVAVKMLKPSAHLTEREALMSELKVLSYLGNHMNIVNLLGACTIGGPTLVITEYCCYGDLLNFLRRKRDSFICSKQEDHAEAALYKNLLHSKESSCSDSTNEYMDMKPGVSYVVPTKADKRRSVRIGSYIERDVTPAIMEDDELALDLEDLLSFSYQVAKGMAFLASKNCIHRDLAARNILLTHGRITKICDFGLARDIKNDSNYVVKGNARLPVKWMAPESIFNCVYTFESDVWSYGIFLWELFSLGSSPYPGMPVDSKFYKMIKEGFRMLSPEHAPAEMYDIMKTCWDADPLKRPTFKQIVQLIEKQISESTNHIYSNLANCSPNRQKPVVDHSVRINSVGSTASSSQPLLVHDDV", "experiment": "AlphaBead", "type": "biochemical", "units": {"IC50": "µM"}}
{"smiles": "COc1ccc(-c2cc(=O)c3c(O)cc(O)cc3o2)cc1", "note": "[Y1, acacetin]", "IC50": 13.3}
{"smiles": "O=c1cc(-c2ccc(O)cc2)oc2cc(O)cc(O)c12", "note": "[Y3, apigenin]", "IC50": 4.7}
{"smiles": "O=c1cc(-c2ccc(O)c(O)c2)oc2cc(O)cc(O)c12", "note": "[Y4, luteolin]", "IC50": 1}
